Measured values reported in patent US6830894B1, “Compounds and methods for modulating claudin-mediated functions” (Adherex Technologies, Inc., priority 1998, dated 2004).

Tested on: MDCK cell monolayers
Assay: Electrical resistance across MDCK cell monolayer
Type: cell-based, canine
Description: Yet another assay evaluates the effect of a modulating agent on the electrical resistance across a monolayer of cells. For example, Madin Darby canine kidney (MDCK) cells can be exposed to the modulating agent dissolved in medium (e.g., at a final concentration of 0.5 mg/ml for a period of 24 hours). The effect on electrical resistance can be measured using standard techniques. This assay evaluates the effect of a modulating agent on tight junction formation in epithelial cells. In general, the presence of 500 μg/mL modulating agent should result in a statistically significant decrease in electrical resistance after 24 hours.
Madin Darby canine kidney (MDCK) cells were plated in Millicells (Millipore, Bedford, Mass.), at a density of 300,000 cells per Millicell, and cultured in Dulbecco's Modified Eagle Medium (DMEM; Sigma, St. Louis, Mo.) containing 5% fetal calf serum (Sigma, St. Louis, Mo.) until monolayers formed. Monolayers were exposed to the modulating agent dissolved in medium. The electrical resistance was measured using the EVOM device (World Precision Instruments, Sarasota, Fla.). At the time of measurement, fresh medium, with or without the modulating agent, may be added to the Millicells.

[1] = cultured for 18 hours, peptide at 0.5 mg/ml, relative to medium alone (Control), FIG. 3

Substance | mean electrical resistance across MDCK cell monolayers [1] | mean electrical resistance across MDCK cell monolayers (cultured for 24 hours, peptide at various concentrations, versus medium alone (Control), FIG. 4)
H-WKIYSYAGDN-NH2 [Peptide 119] | did not change the electrical resistance across the monolayer relative to the control | –
N—Ac-WKIYSYAGDN-NH2 [Peptide 118] | reduced the electrical resistance across the monolayer | reduced the electrical resistance across the monolayer in a dose dependent manner
